In PubChem BioAssay (NCI):
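The compound was tested at five concentrations on cells cultured in 96-well plates, with a 48-hour exposure period. Definition used: TGI = concentration required for complete inhibition of growth.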

Experiments:
Assay in all cases: NCI tumour cell line growth inhibition, 48 h
[1] = tested on: ACHN renal
[2] = tested on: OVCAR-5 ovarian
[3] = tested on: LOX IMVI melanoma
[4] = tested on: DU-145 prostate
[5] = tested on: CAKI-1 renal
[6] = tested on: NCI-H23 lung
[7] = tested on: OVCAR-3 ovarian
[8] = tested on: SNB-75 CNS
[9] = tested on: SF-295 CNS
[10] = tested on: DMS 273 small cell lung
[11] = tested on: KM20L2 colon

| SMILES | TGI [1] [µM] | TGI [2] [µM] | TGI [3] [µM] | TGI [4] [µM] | TGI [5] [µM] | TGI [6] [µM] | TGI [7] [µM] | TGI [8] [µM] | TGI [9] [µM] | TGI [10] [µM] | TGI [11] [µM] |
| --- | --- | --- | --- | --- | --- | --- | --- | --- | --- | --- | --- |
| c1ccc(-c2cnc(SC(c3ccccc3)c3ccccc3)[nH]2)cc1 | > 100 | > 100 | 59 | > 100 | > 100 | 52.5 | > 100 | > 100 | > 100 | – | – |
| COC(=O)C1OC(O[C@H]2CC[C@]3(C)[C@H]4CC=C5[C@@H]6CC(C)(C)CC[C@]6(C(=O)OC)CC[C@@]5(C)[C@]4(C)CC[C@H]3C2(C)C)C(O)C(O)C1O (some centres not stated) | 24.2 | 27.7 | 20 | 27.9 | 21.8 | 32.4 | 15.5 | 31.1 | 28.7 | – | – |
| O=C(NN1C(=O)C(Cl)C1c1cccc(O)c1)c1ccccc1O (configuration not stated) | > 100 | – | > 100 | – | – | > 100 | > 100 | > 100 | > 100 | > 100 | – |
| O=C1c2ccccc2N=C(c2cc3c(cc2Cl)Sc2nccn2S3(=O)=O)OS(=O)(=O)N1c1ccccc1 | > 100 | 78.8 | 32 | > 100 | > 100 | 66.2 | > 100 | 46.1 | 42.4 | – | – |
| O=S(=O)(O)c1ccc2c(N=Nc3cccc4ccccc34)c(O)ccc2c1 | > 100 | > 100 | > 100 | > 100 | > 100 | > 100 | > 100 | > 100 | > 100 | – | – |
| CC1CC(=O)Nc2ccc(Cl)cc2N1C(=O)CN1CCC(CCCCN(C)C)CC1 (configuration not stated) | > 100 | > 100 | > 100 | – | > 100 | > 100 | > 100 | – | > 100 | > 100 | > 100 |
| Cc1cc(C)cc(Nc2nnc3n2S(=O)(=O)c2cc(C)c(Cl)cc2S3)c1 | 47.8 | > 100 | 21.3 | 97 | > 100 | 19.2 | 17.5 | > 100 | > 100 | – | – |
| Clc1ccc(Nc2ncco2)cc1Cl | > 10 | > 10 | > 10 | > 10 | > 10 | > 10 | > 10 | > 10 | > 10 | – | – |
| CC(C)OP(=O)(OC(C)C)C(=NCCO)NNc1ccc([N+](=O)[O-])cc1 | > 100 | > 100 | > 100 | – | > 100 | > 100 | > 100 | > 100 | – | > 100 | > 100 |
| COc1cccc(N/C(C)=C2/CCOC2=O)c1 | > 10 | > 10 | > 10 | > 10 | > 10 | > 10 | > 10 | > 10 | > 10 | – | – |
| COc1ccc2c(c1)CC[C@@H]1[C@@H]2CC[C@]2(C)/C(=N/OCCN3CCCC3)CC[C@@H]12 | 15.5 | 10.1 | 3.19 | 15.5 | 3.42 | 19.5 | 16.2 | 9.49 | 4.63 | – | – |
